Laboratory results as given in patent US8895236B2, “Composition for cryopreservation comprising nicotinamide, glycerol and red blood cells” (priority 1998, dated 2014).

Legend:
red blood cells [1] = assay: Thaw and overall hemolysis, 10% glycerol reduced cryopreservation model (Example 3); format: cell-based, human; details: 10% (w/v) glycerol base
Protocol: The model used is a reduced glycerol cryopreservation system. 10% (w/v) glycerol is added to the unit prior to freezing at −80° C.
A single unit of packed red blood cells in ADSOL was obtained using standard blood banking protocols. […] From this red blood cell unit 50 ml of red cells was placed into each of 3 PVC freezing bags having a maximum volume of 150 ml. An equal volume (50 ml) was added to each of the bags composed of the above preservation solution and the experimental conditions. The final composition of the first bag was 10% (w/v) glycerol. […] The overall hemolysis was also determined.

red blood cells [2] = assay: Thaw and overall hemolysis, glycerol-based cryoprotectant with biochemical stabilization (Example 4); format: cell-based, human; details: for % Hemolysis Thaw: frozen −80° C., thawed 37° C. water bath 10 minutes; for % Hemolysis Overall: overall hemolysis following the wash with 12%, 1.6% and 0.9% saline
Protocol: An aliquot of blood was transferred to a PVC storage bag, to which any experimental agents were added. Glycerol was then added until the desired final glycerol was achieved. This unit was frozen at −80° C., stored and thawed in a 37° C. water bath for 10 minutes. […] The values indicate the percent hemolysis in the thawed sample, the overall amount of hemolysis following the wash and the is percent of residual free hemoglobin in the final sample. Hemolysis is calculated as the ratio of free hemoglobin to the total hemoglobin content in the sample.

red blood cells [3] = assay: Thaw hemolysis of red blood cells frozen at −80° C. with reduced glycerol (Example 1); format: cell-based, human; details: frozen at −80° C. 2-7 days, thawed 37° C. water bath 10 minutes; ratio of free to total hemoglobin
Protocol: A significant percentage of the hemolytic damage is shown to be reversed by the addition of a preservative solution containing adenine, glutamine, sodium chloride, mannitol, and dextrose, with the essential additive being dextrose, and final concentrations of 5 mM pentoxifylline and 25 μg/ml flurbiprofen in DMSO as a carrier.
Specifically, 50 ml of packed red blood cells was added to a PVC freezing bag with a maximum volume of 150 ml. Isotonic saline or preservative solution containing the additional biochemical reagents pentoxifylline and flurbiprofen was mixed with the red blood cells. A volume of Glycerolyte 57 (Fenwall) was added slowly until the final concentration of glycerol was achieved. The total volume of all additions was 50 ml, making the final […] of the red blood cell unit 100 ml. […] The levels of thaw hemolysis are shown below in TABLE 1.

red blood cells [4] = assay: Thaw, overall and final hemolysis, glycerol based cryoprotectant with additives (Example 2); format: cell-based, human; details: additives in 20% glycerol; for Hemolysis (%) Overall: after glycerol removal by serial dilution with saline; for Hemolysis (%) Final (residual free hemoglobin): final residual free hemoglobin after wash; for Hemolysis (%) Thaw: frozen −80° C. 2-7 days, thawed 37° C. 10 minutes
Protocol: Fifty ml of packed red blood cells were added to a PVC freezing bag. Isotonic saline or preservative solution containing the additional biochemical reagents of interest was mixed with the red blood cells. The samples were treated as follows prior to freezing at −80° C.: • 1. 40% Glycerol • 2. 20% Glycerol • 3. Nicotinamide • 4.
A volume of Glycerolyte 57 (Fenwall) was added slowly until the final concentration of glycerol was achieved. The total volume of all additions was 50 ml, making the final volume of the red blood cell unit 100 ml. The PVC bags were frozen at −80° C. for 2-7 days and thawed by submersion in a 37° C. water bath for 10 minutes. The level of thaw hemolysis was determined as the ratio of free hemoglobin to total hemoglobin. Additionally, the glycerol was removed from the thawed red blood cell units by serial dilution with saline similar to blood bank protocols. The overall hemolysis and the final residual free hemoglobin levels were also determined.

red blood cells [5] = details: frozen storage at −80° C., glycerol washed out prior to transfusion; typical level; cited from earlier work
red blood cells [6] = tested on: red blood cells
Text: Additionally, the glycerol was removed from the thawed red blood cell units by serial dilution with saline similar to blood bank protocols.

[7] = listed as 20% Glycerol with Control

Structure (SMILES)	% Hemolysis (level of thaw hemolysis) (red blood cells [3]) [%]	Hemolysis (%) Overall (red blood cells [4]) [%]	Hemolysis (%) Final (residual free hemoglobin) (red blood cells [4]) [%]	Hemolysis (%) Thaw (red blood cells [4]) [%]	other results
OCC(O)CO [10% Glycerol, glycerol]	–	–	–	–	% Hemolysis Overall (red blood cells [1]; after glycerol removal by serial dilution with saline): 93.62 ± 1.28%; % Hemolysis Thaw (red blood cells [1]; frozen −80° C. 2-7 days, thawed 37° C. 10 minutes): 61.71 ± 1.26%
OCC(O)CO [20% Glycerol, glycerol]	35.29	41.48	1.09	9.39	% Hemolysis Thaw (red blood cells [2]; [7]): 37.9%; % Hemolysis Overall (red blood cells [2]; [7]): 52.0%
OCC(O)CO [30% Glycerol, glycerol]	3.53	–	–	–	–
OCC(O)CO [40% Glycerol, glycerol]	1.91	14.1	0.45	2.01	hemolysis during the wash procedure (red blood cells [5]): 10-15%; % Hemolysis Thaw (red blood cells [2]): 1.9%; % Hemolysis Overall (red blood cells [2]): 6.1%
C[S+](C)[O-] [DMSO, dimethyl sulfoxide]	–	–	–	–	% Hemolysis (red blood cells [6]): 23.17 ± 0.58%
NC(=O)c1cccnc1 [Nicotinamide]	–	22.93	0.43	8.13	–
